# “Also recorded” adds a separate entry of the source.
# Columns and labels:
# [1] = biological target: T1, MBP-PB1-ZZ WT (p62 residues 1–181) (Homo sapiens, UniProt Q13501); experiment: FP binding assay, MBP-PB1-ZZ WT
# T1 construct: The PB1-ZZ-domain of p62 (residues 1–181) WT and various mutants were expressed as MBP-fused forms; made in house; host or cells: Escherichia coli BL21(DE3)
# Protocol: The PB1-ZZ-domain of p62 (residues 1–181) WT and various mutants were expressed as MBP-fused forms. […] The ZZ-domain (residues 122–181) WT and various mutants were expressed as GST-fused forms.
# FITC-labeled R-BiP/GRP78 peptide and all mutant peptides were dissolved to 1 mM concentration in buffers (50 mM MES pH 6.0 [or 50 mM Tris pH 8.0], 100 mM NaCl, and 1 mM DTT) and sequentially diluted with binding buffer up to 100 nM in each 40 μL reaction well. Purified GST-ZZ, MBP-PB1-ZZ WT and the respective mutants were also serially diluted in binding buffer and mixed into each reaction well at a concentration ranging from 400 nM to 3 mM. […] A nonlinear graph of p62 construct concentration-dependent polarization was calculated and drawn using GraphPad Prism 7 software.
# [2] = tested on: degradation of R-BiP protein and p62 in HeLa cells; experiment: Cycloheximide-chase protein degradation assay; format: cell-based; conditions: HA-p62 and Ub-R-BiP transfected, chloroquine 30 μM, 16 hr, 50 μg/ml cycloheximide 16 hr, immunoblotting
# Protocol: HeLa cells were cultured in DMEM (HyClone) containing 10% FBS (HyClone) and 1% penicillin/streptomycin (HyClone). Cells were transiently transfected with plasmids using Lipofectamine 2000 (Invitrogen) for mammalian expression. For protein degradation analysis, HeLa cells at 80% confluence were transiently transfected with plasmids expressing HA-p62 (either WT or mutants) and Ub-R-BiP. For the blocking of protein synthesis, cells were treated with 50 μg/ml cycloheximide (Sigma-Aldrich) for […] prior to cell harvesting. Cultured cells were pelleted by centrifugation and pellets were resuspended in phosphate-buffered saline (PBS). A volume of 150 μl was then mixed with 150 μl of 5X SDS-PAGE loading buffer (125 mM Tris-HCl pH 6.8, 4% SDS, 10% 2-mercaptoethanol and 20% glycerol). Each sample was heated for 5 min and 0.1 mg of total protein was subjected to Western blotting. Following antibodies were used in this study: rabbit monoclonal anti-p62 (Cell Signaling Technology, 8025, 1:1000), rabbit polyclonal anti-R-BiP (Abfrontier, AR02-PA0001, 1:1000), mouse monoclonal anti-β-actin (Sigma-Aldrich, A5441, 1:20,000), rat monoclonal anti-HA (Roche, 1867431, 1:20,000), mouse monoclonal anti-His-HRP (Santa Cruz, sc-8036 HRP, 1:20,000) and mouse monoclonal anti-MBP-HRP (NEB, E8038S, 1:2000).
# Supplementary Figure 7. Degradation assay of R-BiP and p62 protein […]
# T1 sequence (Q13501 1-181): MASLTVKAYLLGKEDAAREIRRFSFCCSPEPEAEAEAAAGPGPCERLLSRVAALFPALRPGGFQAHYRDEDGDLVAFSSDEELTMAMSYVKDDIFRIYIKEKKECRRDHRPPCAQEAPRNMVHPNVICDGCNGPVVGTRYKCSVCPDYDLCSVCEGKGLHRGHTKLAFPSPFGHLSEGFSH
SMILES,Binding (dissociation constant) ([1]; pH 4.5),Binding (dissociation constant) ([1]; pH 5.0),Binding (dissociation constant) ([1]; pH 8.5),Binding (dissociation constant) ([1]; pH 9.0),Degradation of R-BiP protein and p62 [2]
N=C(N)NCCC[C@H](N)C(=O)N[C@@H](CCC(=O)O)C(=O)N[C@@H](CCC(=O)O)C(=O)N[C@@H](CCC(=O)O)C(=O)N[C@@H](CC(=O)O)C(=O)N[C@@H](CCCCNC(=S)Nc1ccc2c(c1)C(=O)OC21c2ccc(O)cc2Oc2cc(O)ccc21)C(=O)O [R-BiP peptide],not detected,not detected,not detected,not detected,–
CCN(CC)CCCC(C)Nc1ccnc2cc(Cl)ccc12 (centres unmarked) [chloroquine],–,–,–,–,blocked; also recorded: not degraded

# Source: paper PMC6098011, “Insights into degradation mechanism of N-end rule substrates by p62/SQSTM1 autophagy adapter” (Nature Communications, 2018)
